In patent US20050191290A1, “Means and methods for manipulating hypersensitivity-like responses” (priority 2002, published 2005):
Peptide text beside a SMILES is read from it.

System: healthy male volunteers
Experiment: Phase 1 single rising dose clinical safety study
Type: in vivo, human
Description: Primary objective: to study the safety and tolerability of F991 at increasing single dose levels in healthy male volunteers
Design: This study was a double-blind, placebo-controlled, single rising dose study in two alternating panels of eight healthy male volunteers. In each panel, two volunteers received placebo throughout the study and the other six volunteers received three increasing single doses of F991.
Safety assessments: vital signs; adverse events (including eyesight); ECG four times each period; clinical laboratory: on admission for each period
Panel I: period 1: 0.08 mg/kg F991 or placebo iv infusion • period 2: 0.8 mg/kg F991 or placebo iv infusion • period 3: 3.2 mg/kg F991 or placebo iv infusion
Panel II: period 1: 0.32 mg/kg F991 or placebo iv infusion • period 2: 1.6 mg/kg F991 or placebo iv infusion • period 3: 6.4 mg/kg F991 or placebo iv infusion Criteria for Evaluation
Safety: adverse events, clinical laboratory test results, ECG recordings, vital signs and physical examination

[1] = single i.v. doses 0.08-6.4 mg/kg

SMILES: CC(C)C[C@H](NC(=O)[C@H](CS)NC(=O)[C@H](CS)NC(=O)[C@H](Cc1c[nH]cn1)NC(=O)CNC(=O)[C@H](CO)NC(=O)[C@H](Cc1c[nH]c2ccccc12)NC(=O)[C@H](Cc1c[nH]cn1)NC(=O)[C@H](C)N)C(=O)O [F991] (H-AHWSGHCCL-OH)
- safety and tolerability (I.V. single rising doses up to 6.4 mg/kg): safe and well tolerated
- SAEs during the study [1]: no SAEs
- clinical laboratory data, vital signs, ECG and physical examination [1]: no clinically significant abnormalities
- correlation between dose and number, frequency and intensity of AEs [1]: No correlation
- most frequently reported AEs for volunteers on active drug [1]: eye disorders
